Test results taken from ChEMBL document CHEMBL1201862, “PubChem BioAssay data set” (2004).
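1) Cells in 96-well plates. 2) Compound, 48 h, 5 concentrations. 3) Linear interpolation between surrounding doses. 4) Unreached endpoint = highest concentration. GI50: concentration for 50% inhibition of growth.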 Calls of active or inactive are those of the source. Cut-off read from the data, not from the text of the source: active = GI50 up to about 1.1 µM and inactive = higher.

What was measured:
Test in all cases: inhibition of tumour cell growth, NCI panel, 48 h
NCI-H226 = tested on: NCI-H226
KM-20L2 = tested on: KM-20L2
HCT-116 = tested on: HCT-116
UACC-62 = tested on: UACC-62
SN12C = tested on: SN12C
U-251 = tested on: U-251
786-0 = tested on: 786-0
MOLT-4 = tested on: MOLT-4
SF-295 = tested on: SF-295
EKVX = tested on: EKVX
SNB-78 = tested on: SNB-78
NCI-H460 = tested on: NCI-H460
K562 = tested on: K562
HOP-18 = tested on: HOP-18
OVCAR-4 = tested on: OVCAR-4
HL-60 = tested on: HL-60
LXFL 529 = tested on: LXFL 529
SR = tested on: SR
HCT-15 = tested on: HCT-15
OVCAR-5 = tested on: OVCAR-5
HCC 2998 = tested on: HCC 2998
IGROV-1 = tested on: IGROV-1
SF-539 = tested on: SF-539
Malme-3M = tested on: Malme-3M
COLO 205 = tested on: COLO 205
LOX IMVI = tested on: LOX IMVI
SK-MEL-5 = tested on: SK-MEL-5
ACHN = tested on: ACHN
OVCAR-8 = tested on: OVCAR-8
A549 = tested on: A549
UO-31 = tested on: UO-31
HT-29 = tested on: HT-29
UACC-257 = tested on: UACC-257
DMS-273 = tested on: DMS-273
SK-MEL-2 = tested on: SK-MEL-2
RXF 631 = tested on: RXF 631
A498 = tested on: A498
XF498 = tested on: XF498
NCI-H522 = tested on: NCI-H522
SK-MEL-28 = tested on: SK-MEL-28
DLD-1 = tested on: DLD-1
SNB-75 = tested on: SNB-75
SK-OV-3 = tested on: SK-OV-3
TK-10 = tested on: TK-10
M14 = tested on: M14
SF-268 = tested on: SF-268
CAKI-1 = tested on: CAKI-1
M19-MEL = tested on: M19-MEL
NCI-H23 = tested on: NCI-H23
HOP-62 = tested on: HOP-62
SNB-19 = tested on: SNB-19
RXF 393 = tested on: RXF 393
CCRF-CEM = tested on: CCRF-CEM
OVCAR-3 = tested on: OVCAR-3
DMS-114 = tested on: DMS-114
HOP-92 = tested on: HOP-92
KM12 = tested on: KM12
SW-620 = tested on: SW-620

SMILES: C#C[C@H]1CCCCCC1O (stereo partly drawn)
- GI50 (NCI-H226): > 100 µM (inactive)
- GI50 (KM-20L2): > 100 µM (inactive)
- GI50 (HCT-116): > 100 µM (inactive)
- GI50 (UACC-62): > 100 µM (inactive)
- GI50 (SN12C): > 100 µM (inactive)
- GI50 (U-251): > 100 µM (inactive)
- GI50 (786-0): > 100 µM (inactive)
- GI50 (MOLT-4): > 100 µM (inactive)
- GI50 (SF-295): > 100 µM (inactive)
- GI50 (EKVX): > 100 µM (inactive)
- GI50 (SNB-78): > 100 µM (inactive)
- GI50 (NCI-H460): > 100 µM (inactive)
- GI50 (K562): > 100 µM (inactive)
- GI50 (HOP-18): 54.6 µM (inactive)
- GI50 (OVCAR-4): > 100 µM (inactive)
- GI50 (HL-60): 36.1 µM (inactive)
- GI50 (LXFL 529): 96.8 µM (inactive)
- GI50 (SR): 97.7 µM (inactive)
- GI50 (HCT-15): > 100 µM
- GI50 (OVCAR-5): > 100 µM (inactive)
- GI50 (HCC 2998): > 100 µM (inactive)
- GI50 (IGROV-1): > 100 µM (inactive)
- GI50 (SF-539): > 100 µM (inactive)
- GI50 (Malme-3M): 65.6 µM (inactive)
- GI50 (COLO 205): > 100 µM (inactive)
- GI50 (LOX IMVI): 29 µM (inactive)
- GI50 (SK-MEL-5): > 100 µM (inactive)
- GI50 (ACHN): > 100 µM (inactive)
- GI50 (OVCAR-8): > 100 µM (inactive)
- GI50 (A549): > 100 µM (inactive)
- GI50 (UO-31): > 100 µM (inactive)
- GI50 (HT-29): > 100 µM (inactive)
- GI50 (UACC-257): > 100 µM (inactive)
- GI50 (DMS-273): > 100 µM (inactive)
- GI50 (SK-MEL-2): > 100 µM (inactive)
- GI50 (RXF 631): > 100 µM (inactive)
- GI50 (A498): > 100 µM (inactive)
- GI50 (XF498): > 100 µM (inactive)
- GI50 (NCI-H522): > 100 µM (inactive)
- GI50 (SK-MEL-28): > 100 µM (inactive)
- GI50 (DLD-1): > 100 µM (inactive)
- GI50 (SNB-75): > 100 µM (inactive)
- GI50 (SK-OV-3): > 100 µM (inactive)
- GI50 (TK-10): > 100 µM (inactive)
- GI50 (M14): > 100 µM (inactive)
- GI50 (SF-268): > 100 µM (inactive)
- GI50 (CAKI-1): > 100 µM (inactive)
- GI50 (M19-MEL): > 100 µM (inactive)
- GI50 (NCI-H23): > 100 µM (inactive)
- GI50 (HOP-62): > 100 µM (inactive)
- GI50 (SNB-19): > 100 µM (inactive)
- GI50 (RXF 393): > 100 µM (inactive)
- GI50 (CCRF-CEM): 59 µM (inactive)
- GI50 (OVCAR-3): > 100 µM (inactive)
- GI50 (DMS-114): > 100 µM (inactive)
- GI50 (HOP-92): > 100 µM (inactive)
- GI50 (KM12): > 100 µM (inactive)
- GI50 (SW-620): 23.3 µM (inactive)
